These results are taken from patent US5214070A, “Diaryl ether cycloalkanes” (Imperial Chemical Industries PLC, priority 1989, dated 1993).

In this experiment the test system is 5-LO. The experiment in a line: Test b): A23187-challenged heparinised human blood, LTB4 radioimmunoassay. The experiment is classed as cell-based. To be noted: A23187 challenge. The procedure:
b) An in vitro assay system involving incubating a test compound with heparinised human blood, prior to challenge with the calcium ionophore A23187 and then indirectly measuring the inhibitory effects on 5-LO by assaying the amount of LTB4 using the specific radioimmunoassay described by Carey and Forder (F. Carey and R. A. Forder, Brit. J. Pharmacol. 1985, 84, 34P) which involves the use of a protein-LTB4 conjugate produced using the procedure of Young et alia (Prostaglandins, 1983, 26(4), 605-613). The effects of a test compound on the enzyme cyclooxygenase (which is involved in the alternative metabolic pathway for arachidonic acid and gives rise to prostaglandins, thromboxanes and related metabolites) may be measured at the same time using the specific radioimmunoassay for thromboxane B2 (TxB2) described by Carey and Forder (see above). This test provides an indication of the effects of a test compound against 5-LO and also cyclooxygenase in the presence of blood cells and proteins. It permits the selectivity of the inhibitory effect on 5-LO or cyclooxygenase to be assessed.

The molecule `CO[C@H]1CCC[C@@]1(OC)c1cc(F)cc(Sc2ccc3ccccc3c2)c1` (racemic) [(1RS,2SR)-1-[5-fluoro-3-(naphth-2-ylthio)phenyl]-1,2-dimethoxycyclopentane] gave an IC50 of about 0.2 µM.
In turn, `C=CCO[C@@]1(c2cc(F)cc(Sc3ccc4ccccc4c3)c2)CCC[C@@H]1OC` (racemic) [(1RS,2SR)-1-allyloxy-1-[5-fluoro-3-(naphth-2-ylthio)phenyl]-2-methoxycyclopentane] came in with an IC50 of about 0.2 µM.
